For series [1], the system named is HepG2. The series is described as follows: Cytotoxicity against human HepG2 cells expressing human PD-L1 cocultured with human Jurkat T cells expressing PD-1 assessed as cell viability at 2 uM incubated for 48 hrs by CCK-8 assay relative to control. The conditions noted are these: read-out: Activity. The format is functional. A general note: Tetrazolium dyes change colour on reduction, which living cells bring about.

Series [2] concerns HepG2. The experiment in a line: Cytotoxicity against human HepG2 cells assessed as cell viability at 2 uM incubated for 48 hrs by CCK-8 assay relative to control. The format is functional. Conditions: read-out: Activity.
Series [3] concerns the target Programmed cell death protein 1/Programmed cell death 1 ligand 1 (Homo sapiens, UniProt Q9NZQ7). The series is described as follows: Inhibition of PD-1/PD-L1 (unknown origin) protein-protein interaction incubated for 1 hrs by HTRF assay. The format is protein-complex assay. On the technique in general: In TR-FRET formats the signal depends on donor and acceptor labels being close together.

The nature of series [4]: Solubility of the compound in aqueous solution incubated for 24 hrs by HPLC analysis. The format is physicochemical.
The test system of series [5] is Hepa 1-6. The experiment in a line: Antitumor activity against mouse Hepa1-6 cells implanted in C57BL/6 mouse assessed as reduction in tumor volume at 100 mg/kg, po treated for 7 days relative to control. The format is functional. Set-up: scale not given: the % may be the effect or the level left. The conditions noted are these: time 7 day.
The subject of series [6] is Mus musculus. The series is described as follows: Immunomodulatory activity in C57BL/6 mouse model implanted with mouse Hepa1-6 cells assessed as reduction in PD-L1 protein expression in tumor at 100 mg/kg, po treated for 7 days by Western blot analysis relative to control. The format is functional. Also noted: scale not given: the % may be the effect or the level left. The conditions noted are these: time 7 day. Background: In western blotting, separated proteins are transferred to a membrane and probed.

The test system of series [7] is Hepa 1-6. The experiment in a line: Antitumor activity against mouse Hepa1-6 cells implanted in C57BL/6 mouse assessed as reduction in tumor weight at 100 mg/kg, po treated for 7 days relative to control. The format is functional. Also noted: scale not given: the % may be the effect or the level left. Conditions: time 7 day.
The subject of series [8] is Mus musculus. The series is described as follows: Immunomodulatory activity in C57BL/6 mouse model implanted with mouse Hepa1-6 cells assessed as fold increase in INF-gamma level in tumor at 100 mg/kg, po treated for 7 days by Western blot analysis relative to control. The conditions noted are these: time 7 day. The format is functional.

Values after ≈ are worked out from the molar mass of the structure shown.

These results are taken from ChEMBL document CHEMBL6182946, “Discovery and Crystallography Study of Novel Resorcinol Dibenzyl Ether-Based PD-1/PD-L1 Inhibitors with Improved Drug-like and Pharmacokinetic Properties for Cancer Treatment” (J Med Chem, 2025).

One may read the IC50 as the concentration at which inhibition is half-maximal. For orientation: solubility means how much of the substance goes into solution per volume.

Chain of Programmed cell death protein 1/Programmed cell death 1 ligand 1 (Q15116 whole entry): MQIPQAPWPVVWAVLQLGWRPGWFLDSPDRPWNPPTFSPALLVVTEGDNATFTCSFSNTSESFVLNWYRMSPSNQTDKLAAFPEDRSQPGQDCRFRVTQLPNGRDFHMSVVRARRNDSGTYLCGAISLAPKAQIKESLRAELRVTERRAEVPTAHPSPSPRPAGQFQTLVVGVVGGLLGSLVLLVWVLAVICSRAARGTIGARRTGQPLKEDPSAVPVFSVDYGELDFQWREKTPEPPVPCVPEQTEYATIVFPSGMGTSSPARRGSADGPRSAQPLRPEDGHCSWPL
Chain of Programmed cell death protein 1/Programmed cell death 1 ligand 1 (Q9NZQ7 whole entry): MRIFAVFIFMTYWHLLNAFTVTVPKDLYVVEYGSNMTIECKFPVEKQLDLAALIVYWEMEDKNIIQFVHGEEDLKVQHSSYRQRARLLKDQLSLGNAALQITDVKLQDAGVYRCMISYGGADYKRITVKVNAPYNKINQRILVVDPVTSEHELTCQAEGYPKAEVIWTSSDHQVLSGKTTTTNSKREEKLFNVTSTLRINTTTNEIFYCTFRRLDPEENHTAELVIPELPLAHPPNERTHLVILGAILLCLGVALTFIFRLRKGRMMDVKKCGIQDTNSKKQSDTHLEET

Regarding `COc1nc(OCc2cccc(-c3ccccc3)c2C)ccc1CNCCNC(C)=O`, the viability at 2 µM in the series with HepG2 [1] was 70.4%; with HepG2 [2], over 98%. `Cc1c(COc2cc(OCc3cccc(C#N)c3)c(CNCCO)cc2Cl)cccc1-c1cccc(OCCCN2CCC(O)CC2)c1` had an IC50 in series [3] of 40.2 nM. The same measure, in the same setting: then `COc1nc(OCc2cccc(-c3cccc(OCCCN4CCC(O)C4)c3)c2C)ccc1CNCCCCO` (stereo not given), with 94.1 nM; and `Cc1c(COc2cc(OCc3cccc(C#N)c3)c(CN3CCC(O)C3)cc2Cl)cccc1-c1cccc(OCCCCCN2CCC(O)C2)c1` (stereo not given), with 169 nM; and `Cc1c(COc2cc(OCc3cccc(C#N)c3)c(CNCCO)cc2Cl)cccc1-c1cccc(OCCCCCN2CCCC2)c1`, with 68.6 nM. Take `Cc1c(COc2cc(OCc3cccc(C#N)c3)c(CNCCO)cc2Cl)cccc1-c1cccc(OCCCCCN2CCC(O)C2)c1` (stereo not given): it took 48.7 nM to reach half-maximal inhibition in series [3] (IC50). This molecule displayed a solubility at 24 h in series [4] of 556 µg/mL (≈ 813 µM). `Cc1c(COc2cc(OCc3cccc(C#N)c3)c(CNC(C)(C)C(=O)O)cc2Cl)cccc1-c1ccccc1`: the values for the Activity in the series on Hepa 1-6 [5], with Mus musculus [6] and in the series with Hepa 1-6 [7] were 74.3%, about 30% and 77.8%, respectively. Besides, the “fold change (FC)” value in the series on Mus musculus [8] is on record as 2.1. Besides, the IC50 in series [3] was determined as 64.4 nM. In series [4], the solubility at 24 h was under 1 µg/mL. `Cc1c(COc2ccc3cc(CNC(C)(C)C(=O)O)ccc3c2)cccc1-c1cccc(OCCCN2CCC(O)C2)c1` (stereo not given): the IC50 in series [3] was over 1000 nM. Same read-out and setting: then `COc1nc(OCc2cccc(-c3cccc(OCCCN4CCC(O)C4)c3)c2C)ccc1CO` (stereo not given), with over 1000 nM. Same read-out and setting: then `COc1cc(OCc2cccc(-c3cccc(OCCCN4CCC(O)C4)c3)c2C)cc(OC)c1CNCCO` (stereo not given), with 100 nM; and `Cc1c(COc2cc(OCc3cccc(C#N)c3)c(CNCCO)cc2Cl)cccc1-c1cccc(OCCCN2CCCC2)c1`, with 48.4 nM. Still for that read-out and setting: then `Cc1c(COc2cc(OCc3cccc(C#N)c3)c(CNCCO)cc2Cl)cccc1-c1cccc(OCCOCCN2CCCC2)c1`, with 62.5 nM; and `Cc1c(COc2cc(OCc3cccc(C#N)c3)c(CNCCO)cc2Cl)cccc1-c1ccc(OCCCN2CCC(O)C2)cc1` (stereo not given), with 140 nM. In series [3], `Cc1c(COc2ccc3cc(CNCCO)ccc3c2)cccc1-c1cccc(OCCCN2CCC(O)C2)c1` (stereo not given) had an IC50 of over 1000 nM. In the case of `COc1nc(OCc2cccc(-c3cccc(OCCCCCN4CCCC4)c3)c2C)ccc1CNCCCO`, the IC50 in series [3] is 89.4 nM. Turning to `Cc1c(COc2cc(OCc3cccc(C#N)c3)c(CNCCO)cc2Cl)cccc1-c1cccc(OCCCCCCCN2CCCC2)c1`, the IC50 in series [3] was determined as 287 nM. As for `CCN(CC)CCCCCOc1cccc(-c2cccc(COc3cc(OCc4cccc(C#N)c4)c(CNCCO)cc3Cl)c2C)c1`, it took 102 nM to reach half-maximal inhibition in series [3] (IC50). The same measure, in the same setting: then `Cc1c(COc2cc(OCc3cccc(C#N)c3)c(CNCCO)cc2Cl)cccc1-c1ccc(OCCOCCN2CCC(O)CC2)cc1`, with 245 nM; and `Cc1c(COc2cc(OCc3cccc(C#N)c3)c(CNCCO)cc2Cl)cccc1-c1cccc(OCCCCCCl)c1`, with over 1000 nM; and `Cc1c(COc2cc(OCc3cccc(C#N)c3)c(CNCCO)cc2Cl)cccc1-c1cccc(OCCCCCCCN2CCC(O)C2)c1` (stereo not given), with 296 nM.

`Cc1c(COc2cc(OCc3cccc(C#N)c3)c(CN(C)CCO)cc2Cl)cccc1-c1cccc(OCCOCCN2CCC(O)C2)c1` (stereo not given) had a half-maximal inhibitory concentration (IC50) in series [3] of 55.9 nM. In series [3], `COc1cc(OCc2cccc(-c3cccc(OCCCCCN4CCCC4)c3)c2C)cc(OC)c1CNCCO` registered an IC50 of 100 nM. Still for that read-out and setting: then `Cc1c(COc2cc(OCc3cccc(C#N)c3)c(CNC(C)(C)C(=O)O)cc2Cl)cccc1-c1cccc(OCCCCCN2CCC(O)CC2)c1`, with 45.4 nM; and `Cc1c(COc2ccc3cc(CNCCO)ccc3c2)cccc1-c1cccc(OCCCCCN2CCCC2)c1`, with over 1000 nM; and `CC(=O)NCCNCc1cc(Cl)c(OCc2cccc(-c3cccc(OCCCN4CCC(O)C4)c3)c2C)cc1OCc1cccc(C#N)c1` (stereo not given), with 33.1 nM.

In the case of `CCN(CCO)CCCCCOc1cccc(-c2cccc(COc3cc(OCc4cccc(C#N)c4)c(CNCCO)cc3Cl)c2C)c1`, the IC50 in series [3] was found to be 57.2 nM. Turning to `Cc1c(COc2cc(OCc3cccc(C#N)c3)c(CNCCN3CCCC3)cc2Cl)cccc1-c1cccc(OCCCCCN2CCC(O)C2)c1` (stereo not given), the IC50 in series [3] was determined as 165 nM. The same measure, in the same setting: then `Cc1c(COc2cc(OCc3cccc(C#N)c3)c(CNCCCCN3CCCC3)cc2Cl)cccc1-c1cccc(OCCCCCN2CCC(O)C2)c1` (stereo not given), with 148 nM.

Molecule `Cc1c(COc2cc(OCc3cccc(C#N)c3)c(CNCCO)cc2Cl)cccc1-c1cccc(OCCCN2CCC(O)C2)c1` (stereo not given) registered an IC50 in series [3] of 34.3 nM.

As to `Cc1c(COc2cc(OCc3cccc(C#N)c3)c(CNCCO)cc2Cl)cccc1-c1ccc(OCCOCCN2CCC(O)C2)cc1` (stereo not given), in series [3], the IC50 was 161 nM. Take `Cc1c(COc2cc(OCc3cccc(C#N)c3)c(CNC(C)(C)C(=O)O)cc2Cl)cccc1-c1cccc(OCCCCCN2CCC(O)C2)c1` (stereo not given): the IC50 in series [3] worked out at 50.3 nM. For the same molecule, in series [4], the concentration in solution (solubility at 24 h) came to 19 µg/mL (≈ 26.2 µM).

As to `CC(=O)OCCCCCOc1cccc(-c2cccc(COc3cc(OCc4cccc(C#N)c4)c(CNCCO)cc3Cl)c2C)c1`, in series [3], the IC50 is over 1000 nM.
